Data set [1] concerns Rattus norvegicus. Description: Hypoglycemic activity in 48 hrs fasted Charles River rat at 150 mg/kg, po measured at 2 hrs relative to control. Format: functional.
Data set [2] relates to Rattus norvegicus. Kind of data set: Hypoglycemic activity in 48 hrs fasted Charles River rat at 150 mg/kg, po measured at 4 hrs relative to control. Format: functional.
Data set [3] deals with Rattus norvegicus. Description: Hypoglycemic activity in 48 hrs fasted Charles River rat at 150 mg/kg, po measured at 1 hr relative to control. Format: functional.
Data set [4] has as its system Rattus norvegicus. Description: Hypoglycemic activity in 48 hrs fasted Charles River rat at 50 mg/kg measured at 7 hrs relative to control. Details: dose 50 mg/kg. Format: functional, organism-based.
Data set [5] is filed under the species Rattus norvegicus. Kind of data set: Toxicity in rat assessed as mortality measured up to 24 hrs. Format: organism-based. To be noted: in vivo.
In data set [6] the test system is Rattus norvegicus. Description: Hypoglycemic activity in 48 hrs fasted Charles River rat at 150 mg/kg, po measured at 5 hrs relative to control. Format: functional.
Data set [7] deals with Rattus norvegicus. Kind of data set: Toxicity in rat assessed as increase in hepatic triglyceride level at 50 mg/kg measured after 4 hrs relative to control. Format: organism-based. Details: dose 50 mg/kg. As to conditions: in vivo.
Data set [8] concerns Rattus norvegicus. Kind of data set: Hypoglycemic activity in 48 hrs fasted Charles River rat at 300 mg/kg, po measured at 1 hr relative to control. Format: functional.
Data set [9] deals with Rattus norvegicus. Kind of data set: Hypoglycemic activity in 48 hrs fasted Charles River rat at 300 mg/kg, po measured at 4 hrs relative to control. Format: functional.
Data set [10] concerns Rattus norvegicus. Kind of data set: Hypoglycemic activity in 48 hrs fasted Charles River rat at 300 mg/kg, po measured at 2 hrs relative to control. Format: functional.
The test system of data set [11] is Rattus norvegicus. Description: Hypoglycemic activity in 48 hrs fasted Charles River rat at 150 mg/kg, po measured at 7 hrs relative to control. Details: dose 150 mg/kg. Format: functional, organism-based.
Data set [12] relates to Rattus norvegicus. Kind of data set: Hypoglycemic activity in 48 hrs fasted Charles River rat at 200 mg/kg, po measured at 1 hr relative to control. Format: functional.
The subject of data set [13] is Rattus norvegicus. Kind of data set: Hypoglycemic activity in 48 hrs fasted Charles River rat at 200 mg/kg, po measured at 4 hrs relative to control. Format: functional.
Data set [14] relates to Rattus norvegicus. Description: Hypoglycemic activity in 48 hrs fasted Charles River rat at 200 mg/kg, po measured at 2 hrs relative to control. Format: functional.
For data set [15], the species on record is Rattus norvegicus. Description: Toxicity in rat assessed as increase in hepatic triglyceride level measured up to 24 hrs. Format: organism-based. To be noted: in vivo.
The species named for data set [16] is Rattus norvegicus. Kind of data set: Toxicity in rat assessed as mortality measured at 6 hrs. Format: organism-based. To be noted: in vivo.
The subject of data set [17] is Rattus norvegicus. Kind of data set: Hypoglycemic activity in 48 hrs fasted Charles River rat at 260 mg/kg, po measured at 2 hrs relative to control. Format: functional.
In data set [18] the test system is Rattus norvegicus. Kind of data set: Hypoglycemic activity in 48 hrs fasted Charles River rat at 260 mg/kg, po measured at 1 hr relative to control. Format: functional.
Data set [19] concerns Rattus norvegicus. Kind of data set: Hypoglycemic activity in 48 hrs fasted Charles River rat at 260 mg/kg, po measured at 4 hrs relative to control. Format: functional.
Data set [20] deals with Rattus norvegicus. Description: Hypoglycemic activity in 48 hrs fasted Charles River rat at 300 mg/kg, ip measured at 1 hr relative to control. Format: functional. To be noted: route intraperitoneal.
Data set [21] has as its system Rattus norvegicus. Description: Hypoglycemic activity in 48 hrs fasted Charles River rat at 300 mg/kg, ip measured at 4 hrs relative to control. Format: functional. To be noted: route intraperitoneal.
Data set [22] deals with Rattus norvegicus. Description: Hypoglycemic activity in 48 hrs fasted Charles River rat at 300 mg/kg, ip measured at 2 hrs relative to control. Format: functional. To be noted: route intraperitoneal.

Structures are written as SMILES. Calls of active or inactive are those of the source. No cut-off for these calls is given here.

34 compounds from ChEMBL document CHEMBL3227927, “Synthesis and hypoglycemic activity of pyridyl alcohols” (J Med Chem, 1979) can be followed below.

As for `OCc1cccnc1` [NICOTINYL ALCOHOL], the Activity in the data set with Rattus norvegicus [1] was -3%; with Rattus norvegicus [2] it was -19%; in the data set on Rattus norvegicus [3] it was 11%.

`Cc1cccnc1CCCO`: in the data set with Rattus norvegicus [4], the result was Active. Further, the Activity entry in the data set filed under Rattus norvegicus [5] is reported as “Toxic”; in the data set with Rattus norvegicus [1] it was -18%; in the data set on Rattus norvegicus [6], -87%; with Rattus norvegicus [2] it was -68%; in the data set on Rattus norvegicus [3] it was -22%. The “fold change (FC)” value in the data set on Rattus norvegicus [7] is 10.

`Cc1cccnc1CC(C)O.Cl` (centres undefined): the Activity in the data set on Rattus norvegicus [1] is listed as -3%; in the data set with Rattus norvegicus [2] it was -12%; with Rattus norvegicus [3], 3%.

For the compound `OC(Cc1ccccn1)C(Cl)(Cl)Cl` (centres undefined), the Activity is 24% in the data set on Rattus norvegicus [8], 101% in the data set on Rattus norvegicus [9] and 40% with Rattus norvegicus [10].

As for `OCCCc1cccnc1`, the figures for the Activity in the data set on Rattus norvegicus [1], with Rattus norvegicus [2] and in the data set with Rattus norvegicus [3] were -12%, -24% and 3%, respectively. The outcome in the data set on Rattus norvegicus [11] was Active.

`C[n+]1cccc(CCCO)c1.[I-]`: the Activity was -14% in the data set on Rattus norvegicus [1], -12% in the data set with Rattus norvegicus [2] and -13% in the data set with Rattus norvegicus [3].

As for `Cc1ccc[n+]([O-])c1CCCO`, the Activity is on record as -3% in the data set on Rattus norvegicus [1], -8% with Rattus norvegicus [2] and -6% in the data set on Rattus norvegicus [3].

Turning to `Cc1cccnc1CCO`, the Activity was -14% with Rattus norvegicus [1], 8% with Rattus norvegicus [2] and -8% in the data set on Rattus norvegicus [3].

As for `CC(=O)Cc1ncccc1C`, the Activity in the data set on Rattus norvegicus [1] was -14%; with Rattus norvegicus [2], -8%; in the data set with Rattus norvegicus [3] it was -12%.

As to `Cc1cccnc1CO.Cl`, the results for the Activity in the data set with Rattus norvegicus [1], with Rattus norvegicus [2] and with Rattus norvegicus [3] were 0%, 3% and -9%, respectively.

`CCCCNC(=O)NS(=O)(=O)c1ccc(C)cc1` [TOLBUTAMIDE]: the Activity was 28% in the data set on Rattus norvegicus [12], 48% in the data set on Rattus norvegicus [13] and 47% in the data set on Rattus norvegicus [14].

In the case of `Cc1cccnc1/C=C/C(=O)O`, the Activity in the data set on Rattus norvegicus [1] is recorded as 4%; in the data set with Rattus norvegicus [2], 23%; in the data set on Rattus norvegicus [3], -5%.

Consider `Cc1cccnc1CC(O)C(=O)O.Cl` (centres undefined), for which the Activity in the data set with Rattus norvegicus [1] was -5%; in the data set on Rattus norvegicus [2], -1%; in the data set on Rattus norvegicus [3] it was -9%.

Regarding `Cc1cccnc1CCCS`, the Activity was -14% in the data set on Rattus norvegicus [1], -18% with Rattus norvegicus [2] and -9% in the data set on Rattus norvegicus [3].

Turning to `OCc1ccccn1` [PICONOL], the Activity turned out to be 6% in the data set on Rattus norvegicus [1], 2% with Rattus norvegicus [2] and 4% in the data set with Rattus norvegicus [3].

Consider `Cc1cnc(CO)c(C)c1.Cl`, for which the Activity with Rattus norvegicus [1] was -17%; in the data set with Rattus norvegicus [6], -9%; in the data set on Rattus norvegicus [2], -1%; with Rattus norvegicus [3], -12%.

For the compound `Cc1cccnc1C.Cl`, the Activity is -5% in the data set on Rattus norvegicus [1], 8% in the data set on Rattus norvegicus [2] and 0% in the data set with Rattus norvegicus [3].

In the case of `CC(=O)OCCCc1ncccc1C`, the Activity result in the data set listed under Rattus norvegicus [5] is on record as “Toxic”; in the data set on Rattus norvegicus [1], -34%; in the data set listed under Rattus norvegicus [15], “Toxic”; in the data set with Rattus norvegicus [2] it was -73%; in the data set with Rattus norvegicus [3], 21%.

For `OCCCc1ccncc1`, the Activity came to 14% in the data set on Rattus norvegicus [1], 33% in the data set on Rattus norvegicus [2] and 17% in the data set on Rattus norvegicus [3].

On to `COCCCc1ncccc1C`, for which the Activity result in the data set filed under Rattus norvegicus [5] was “Toxic”; in the data set with Rattus norvegicus [1], -14%; in the data set on Rattus norvegicus [6], -52%; in the data set listed under Rattus norvegicus [15], “Toxic”; in the data set with Rattus norvegicus [2] it was -29%; in the data set with Rattus norvegicus [3], -15%.

On to `Cc1ccc[n+](C)c1CCCO.[I-]`, for which the Activity is 3% with Rattus norvegicus [1], -14% in the data set on Rattus norvegicus [2] and -1% with Rattus norvegicus [3].

For the compound `Cc1cccnc1CCCCO`, the values for the Activity in the data set with Rattus norvegicus [1], in the data set on Rattus norvegicus [2] and in the data set with Rattus norvegicus [3] were -9%, 0% and -9%, respectively.

In the case of `Cc1cccnc1CCC(C)(C)O.[O-][Cl+3]([O-])([O-])O`, the Activity in the data set on Rattus norvegicus [1] was -7%; with Rattus norvegicus [2] it was -10%; in the data set with Rattus norvegicus [3], 6%.

Take `Cc1cnc(CCCO)c(C)c1.Cl`: the Activity result in the data set listed under Rattus norvegicus [5] is given as “Toxic”; in the data set with Rattus norvegicus [1] it was -39%; in the data set filed under Rattus norvegicus [15], “Toxic”; with Rattus norvegicus [2] it was -72%; with Rattus norvegicus [3], 27%.

As to `Cc1cccnc1CCC(=O)O`, the Activity entry in the data set listed under Rattus norvegicus [16] was “Toxic”; in the data set filed under Rattus norvegicus [5], “Toxic”; in the data set with Rattus norvegicus [1], -28%; with Rattus norvegicus [6], -90%; in the data set filed under Rattus norvegicus [15] it was “Toxic”; with Rattus norvegicus [2] it was -85%. Besides, the Activity with Rattus norvegicus [3] amounted to 5%.

Turning to `Cc1cccnc1CC(O)C(Cl)(Cl)Cl.Cl` (centres undefined), the Activity with Rattus norvegicus [1] was -29%; with Rattus norvegicus [2], -16%; in the data set on Rattus norvegicus [3], -16%.

On to `Cc1ccc(CCCO)nc1.[O-][Cl+3]([O-])([O-])O`, for which the results for the Activity with Rattus norvegicus [17], with Rattus norvegicus [18] and in the data set on Rattus norvegicus [19] were -1%, 0% and 18%, respectively.

`Cc1ncccc1CO.Cl`: the Activity in the data set with Rattus norvegicus [1] was 1%; in the data set on Rattus norvegicus [2], -11%; in the data set with Rattus norvegicus [3], -3%.

On to `Cc1cc2ccccc2nc1CCCO.Cl`, for which the Activity in the data set on Rattus norvegicus [1] is -9%; in the data set with Rattus norvegicus [2], -10%; in the data set with Rattus norvegicus [3] it was 16%.

For the compound `CC1CCCNC1CCCO.Cl` (centres undefined), the Activity is -3% in the data set with Rattus norvegicus [1], -6% with Rattus norvegicus [2] and -15% in the data set on Rattus norvegicus [3].

In the case of `Cc1ncccc1CCCO.[O-][Cl+3]([O-])([O-])O`, the Activity in the data set on Rattus norvegicus [1] is listed as -8%; with Rattus norvegicus [2], -1%; in the data set with Rattus norvegicus [3] it was -4%.

`OCc1ccncc1` [PYRIDINE 4-METHANOL]: the Activity in the data set on Rattus norvegicus [1] is given as 0%; in the data set with Rattus norvegicus [2], -4%; with Rattus norvegicus [3], 4%.

For the compound `OCCCc1ccccn1`, the Activity in the data set with Rattus norvegicus [1] is reported as 9%; in the data set on Rattus norvegicus [6], 42%; in the data set with Rattus norvegicus [2], 46%.

For `Cc1cccnc1C(=O)O`, the Activity with Rattus norvegicus [20] is recorded as -8%; in the data set on Rattus norvegicus [21] it was -15%; in the data set with Rattus norvegicus [22] it was -9%.
